Test results as given in patent US11883526B2 (priority 2019, dated 2024).
Values joined by “and” are separate entries in the source; they are usually repeats but may differ in a detail not shown here. Equal entries are not always repeated. “Also recorded” adds a separate entry of the source. Structures can show the parent of a compound that is named as a salt. Where two headings read alike, the source gives them in different places. Marks after values point to notes of the source that are not given here.

Assays:
[1] = Text: This example provides an LC-MS/MS method for the determination of ketamine and norketamine in sodium heparin human plasma using ketamine-d4 and norketamine-d4 as the respective internal standards (IS).
[2] = tested on: adult female Sprague Dawley rats; conditions: 3 hours after a single intraperitoneal injection; cited from earlier work
[3] = tested on: female Sprague-Dawley rats; test: Single dose neurotoxicity study: mortality, clinical observations, body weight; assay type: in vivo, rat; conditions: for Clinical observation incidence: Abnormal respiration / Clinical observation incidence: Ataxia / Clinical observation incidence: Catalepsy / Clinical observation incidence: Chromodacryorrhea / Clinical observation incidence: Decreased general activity / Clinical observation incidence: Decubitus / Clinical observation incidence: Increased general activity / Clinical observation incidence: Narrowed palpebral fissure / Clinical observation incidence: Piloerection / Clinical observation incidence: Salivation (out of normal) / Clinical observation incidence: audible respiration / Clinical observation incidence: bradypnoea: single dose
Method: The injection volume was 5 mL/kg.
(§1) Body weight and body weight gain were measured daily.

[4] = tested on: female Sprague-Dawley rats; test: 14-day repeated dose neurotoxicity study: mortality, clinical observations, body weight; assay type: in vivo, rat; conditions: for Clinical observation incidence: Abnormal respiration / Clinical observation incidence: Ataxia / Clinical observation incidence: Chromodacryorrhea / Clinical observation incidence: Decreased general activity / Clinical observation incidence: Decubitus / Clinical observation incidence: Increased general activity / Clinical observation incidence: Salivation (out of normal) / Clinical observation incidence: audible respiration / Clinical observation incidence: bradypnoea: 14 days
Method: as §1

[5] = tested on: female Sprague-Dawley rats; test: Single dose neurotoxicity study: brain histopathology (neuronal necrosis in PCG/RSC); conditions: single dose up to 72 mg, 48 or 96 hours post-dose; hydrochloride
Method: In order to prepare for brain histopathology examination, all main study animals were perfused at necropsy. Prior to the perfusion, rats were anesthetized with isoflurane. After injection of 0.1 ml heparin, the blood of the rat was flushed out with a physiological saline solution by intraarterial insertion of a needle in the abdominal aorta. Thereafter the rat was perfused with glutaraldehyde 3% in potassium phosphate 0.09M and 1.4% sucrose. Due to logistic constraints at maximum 30 animals could undergo the whole-body perfusion procedure on a given day. Therefore, a staggered start of treatment was applied to all 5 groups of main study animals. Consequently, subgroups of 4 main study animals of the vehicle- and 36 and 54 mg-dosed groups, and 5 main study animals of the 72 mg-dosed and positive control groups, were dosed on 6 consecutive days, respectively.
The vehicle control, positive control, and esketamine HCl-dosed animals were sacrificed at either 48 hours (i.e., the first 12 or 15 rats per group) or 96 hours after the dose administration time (i.e., the last 12 or 15 rats per group). The brain tissue of the vehicle control-, positive control- and esketamine HCl-treated rats were processed at the same time and handled in the same way in batches of 4 or 5 animals per group.
Brain tissue was sampled and processed routinely. […]

[6] = tested on: female Sprague-Dawley rats; test: 14-day repeated dose neurotoxicity study: brain histopathology (neuronal necrosis in PCG/RSC); conditions: up to 54 mg/day for 14 days, 48 hours after last instillation; hydrochloride
Method: Due to logistic constraints associated with the whole body perfusion procedure of the animals at necropsy, a staggered start was applied to the study. Consequently, all 5 groups of main study animals were divided into three subgroups of 4 animals each. For each of these subgroups treatment started on a different day. The perfusion procedure is the is the same as described for the single dose study.
All vehicle- and esketamine HCl-treated animals were sacrificed at 48 hours after the last instillation. […] The brain tissue of the vehicle control-, positive control- and esketamine HCl-treated rats were processed at the same time and handled in the same way in batches of 4 animals per group.
Brain tissue was sampled and processed routinely. The trimmed and embedded tissue was sectioned and stained with hematoxylin-eosin (HE). Histoprocessing and staining were carried out in three batches of 4 animals per group (each batch thus containing 4 animals from vehicle control-, positive control- and the three esketamine HCl-treated groups).
Histopathological examination was performed on 7 levels of brain tissue according to Bolon (2013. Toxicol. Pathol. 41(7), 1028-1048) from the vehicle control-, positive control-, and high dose esketamine HCl-treated groups in the single dose study, and in all groups in the repeated dose study.
The microscopic finding of neuronal necrosis in the PCG/RSC of the brain was graded unilaterally according to the number of necrotic neurons observed over the total length of the PCG/RSC structure visible in the tissue section (usually around 3-5 mm) utilizing the following criteria:

[7] = Solubility of esketamine HCl; conditions: room temperature, pH 4.5, factor 1.15
Method: The clinical investigational product is an aqueous solution of the drug substance, esketamine hydrochloride (HCl). This formulation is administered intranasally to patients using a dual nasal spray device, which delivers one spray into each nostril. […] The formulation was stored at 37° C. for stability reasons until dosing.

CNC1(c2ccccc2Cl)CCCCC1=O (racemic) [ketamine, reference compound]
QC sample freeze/thaw stability ([1]; freeze (−20° C.)/thaw (ice-water bath)): 3 freeze (−20° C.)/thaw (ice-water bath) cycles | QC sample freeze/thaw stability ([1]; freeze (−20° C.)/thaw (room temperature)): 3 freeze (−20° C.)/thaw (room temperature) cycles | QC sample long-term storage stability ([1]; human plasma QC sample at −20° C.): 1552 days at −20 °C | QC sample bench-top stability ([1]; human plasma QC sample, room temperature): 68.5 hours at room temp | Stock solution stability (spike solutions) ([1]; ketamine/norketamine spike solutions at −20° C.): 610 days at −20 °C for ketamine/norketamine spike solutions | Processed sample stability ([1]; room temperature): 146.5 hours at room temperature | Whole Blood Stability ([1]; room temperature and ice-water bath (0-4° C.)): 120 minutes at room temperature and in an ice-water bath (0-4° C.) | Stock solution stability ([1]; stock solutions at room temperature under white light): 6 h | Stock solution stability ([1]; stock solutions at −20° C.): 15100 h | ED50 for induction of neuronal vacuolation in the PCG/RSC [2]: 47.5 mg/kg body weight

CN[C@]1(c2ccccc2Cl)CCCCC1=O [esketamine HCl, (S)-2-(2-chlorophenyl)-2-(methylamino)cyclohexanone hydrochloride]
duration of decreased activity, decubitus, bradypnea, catalepsy (anesthesia) after last instillation ([3]; 36 mg): 15 to 30 min | duration of ataxia after decreased activity had subsided ([3]; 54 mg, hydrochloride): 1.5 to 3 h and 1 to 3 h | duration of ataxia after decreased activity had subsided ([3]; 72 mg): ≥ 3 h | Clinical observation incidence: Abnormal respiration ([3]; 36 mg intranasal): 22/24 *** | Clinical observation incidence: Ataxia ([3]; 36 mg intranasal): 24/24 *** | Clinical observation incidence: Catalepsy ([3]; 36 mg intranasal): 20/24 *** | Clinical observation incidence: Chromodacryorrhea ([3]; 36 mg intranasal): 0/24 | Clinical observation incidence: Decreased general activity ([3]; 36 mg intranasal): 23/24 *** | Clinical observation incidence: Decubitus ([3]; 36 mg intranasal): 23/24 *** | Clinical observation incidence: Increased general activity ([3]; 36 mg intranasal): 24/24 *** | Clinical observation incidence: Narrowed palpebral fissure ([3]; 36 mg intranasal): 7/24** | Clinical observation incidence: Piloerection ([3]; 36 mg intranasal): 0/24 | Clinical observation incidence: Salivation (out of normal) ([3]; 36 mg intranasal): 23/24 *** | Clinical observation incidence: audible respiration ([3]; 36 mg intranasal): 10/24 *** | Clinical observation incidence: bradypnoea ([3]; 36 mg intranasal): 22/24 *** | Clinical observation incidence: Abnormal respiration ([3]; 54 mg intranasal): 22/24 *** | Clinical observation incidence: Ataxia ([3]; 54 mg intranasal): 24/24 *** | Clinical observation incidence: Catalepsy ([3]; 54 mg intranasal): 23/24 *** | Clinical observation incidence: Chromodacryorrhea ([3]; 54 mg intranasal): 0/24 | Clinical observation incidence: Decreased general activity ([3]; 54 mg intranasal): 23/24 *** | Clinical observation incidence: Decubitus ([3]; 54 mg intranasal): 23/24 *** | Clinical observation incidence: Increased general activity ([3]; 54 mg intranasal): 24/24 *** | Clinical observation incidence: Narrowed palpebral fissure ([3]; 54 mg intranasal): 10/24 *** | Clinical observation incidence: Piloerection ([3]; 54 mg intranasal): 0/24 | Clinical observation incidence: Salivation (out of normal) ([3]; 54 mg intranasal): 24/24 *** | Clinical observation incidence: audible respiration ([3]; 54 mg intranasal): 3/24 | Clinical observation incidence: bradypnoea ([3]; 54 mg intranasal): 21/24 *** | Clinical observation incidence: Abnormal respiration ([3]; 72 mg intranasal): 30/30 *** | Clinical observation incidence: Catalepsy ([3]; 72 mg intranasal): 30/30 *** | Clinical observation incidence: Chromodacryorrhea ([3]; 72 mg intranasal): 0/30 | Clinical observation incidence: Decreased general activity ([3]; 72 mg intranasal): 30/30 *** | Clinical observation incidence: Decubitus ([3]; 72 mg intranasal): 30/30 *** | Clinical observation incidence: Increased general activity ([3]; 72 mg intranasal): 29/30 *** | Clinical observation incidence: Narrowed palpebral fissure ([3]; 72 mg intranasal): 22/30 *** | Clinical observation incidence: Piloerection ([3]; 72 mg intranasal): 0/30 | Clinical observation incidence: Salivation (out of normal) ([3]; 72 mg intranasal): 29/30 *** | Clinical observation incidence: audible respiration ([3]; 72 mg intranasal): 2/30 | Clinical observation incidence: bradypnoea ([3]; 72 mg intranasal): 30/30 *** | mortality ([3]; single intranasal dose 72 mg, within 30 minutes): two main study animals and two satellite TK animals died | mortality ([3]; single intranasal dose up to 54 mg): No test article related mortality | Clinical observation incidence: Abnormal respiration ([4]; 18 mg/day intranasal): 2/12 | Clinical observation incidence: Ataxia ([4]; 18 mg/day intranasal): 12/12*** | Clinical observation incidence: Chromodacryorrhea ([4]; 18 mg/day intranasal): 0/12 | Clinical observation incidence: Decreased general activity ([4]; 18 mg/day intranasal): 5/12 | Clinical observation incidence: Decubitus ([4]; 18 mg/day intranasal): 0/12 | Clinical observation incidence: Increased general activity ([4]; 18 mg/day intranasal): 12/12*** | Clinical observation incidence: Salivation (out of normal) ([4]; 18 mg/day intranasal): 12/12*** | Clinical observation incidence: audible respiration ([4]; 18 mg/day intranasal): 2/12 | Clinical observation incidence: bradypnoea ([4]; 18 mg/day intranasal): 0/12 | Clinical observation incidence: Abnormal respiration ([4]; 36 mg/day intranasal): 11/12*** | Clinical observation incidence: Ataxia ([4]; 36 mg/day intranasal): 12/12*** | Clinical observation incidence: Chromodacryorrhea ([4]; 36 mg/day intranasal): 0/12 | Clinical observation incidence: Decreased general activity ([4]; 36 mg/day intranasal): 12/12*** | Clinical observation incidence: Decubitus ([4]; 36 mg/day intranasal): 2/12 | Clinical observation incidence: Increased general activity ([4]; 36 mg/day intranasal): 12/12*** | Clinical observation incidence: Salivation (out of normal) ([4]; 36 mg/day intranasal): 12/12*** | Clinical observation incidence: audible respiration ([4]; 36 mg/day intranasal): 6/12** | Clinical observation incidence: bradypnoea ([4]; 36 mg/day intranasal): 11/12*** | Clinical observation incidence: Abnormal respiration ([4]; 54 mg/day intranasal): 12/12*** | Clinical observation incidence: Ataxia ([4]; 54 mg/day intranasal): 12/12*** | Clinical observation incidence: Chromodacryorrhea ([4]; 54 mg/day intranasal): 0/12 | Clinical observation incidence: Decreased general activity ([4]; 54 mg/day intranasal): 12/12*** | Clinical observation incidence: Decubitus ([4]; 54 mg/day intranasal): 8/12*** | Clinical observation incidence: Increased general activity ([4]; 54 mg/day intranasal): 12/12*** | Clinical observation incidence: Salivation (out of normal) ([4]; 54 mg/day intranasal): 12/12*** | Clinical observation incidence: audible respiration ([4]; 54 mg/day intranasal): 6/12** | Clinical observation incidence: bradypnoea ([4]; 54 mg/day intranasal): 12/12*** | mortality ([4]; up to 54 mg/day for 14 days): No test article related mortality | histopathological lesions / neuronal necrosis in the brain [5]: no morphological evidence of neuronal degeneration; also recorded: absent; also recorded: No signs of neuronal necrosis; also recorded: no neuropathological lesions | histopathological lesions / neuronal necrosis in the brain [6]: absence of neuronal necrosis; also recorded: No histopathological lesions | maximum solubility expressed as base [7]: 180 mg esketamine base/mL
